In patent US20190111111A1, “Treatment of Cerebral Cavernous Malformations” (The Regents of the University of California, priority 2016, published 2019):
“Also recorded” adds a separate entry of the source.

What was measured:
Krit1^ECKO BMEC [1] = experiment: ZO-1 tight junction staining in BMEC after Krit1 inactivation (immunofluorescence); format: cell-based, mouse
Method: (§1) BMEC at passages 1-3 were maintained at 37° C. in 95% air and 5% CO2 and were grown to 85% confluence and treated for 48 h with 5 μM 4-hydroxy-tamoxifen (Sigma, H7904) after which the medium was replaced with medium lacking 4-hydroxy-tamoxifen and cells were harvested after 72 hr in culture. For TSP1 and 3TSR addition experiments, after 24 h in regular medium, the 5 nM mrTSP1 (R&D systems, 7859-TH), 20 nM 3TSR, or vehicle were added. After 48 hr a second dose of TSP1, 3TSR, or vehicle were added and cells were harvested after an additional 24 h (FIG. 11a-11d).
BMEC were grown to confluence on collagen coated cover glass (Fisher Scientific, 12-545-81) and cells were fixed for 10 min at room temperature with 4% paraformaldehyde (PFA) in phosphate-buffered saline (PBS; pH 7.4) and then permeabilized with 0.5% Triton X-100 in PBS for 5 min. […]
The slides were viewed with a high-resolution SP5 confocal microscope (Leica Microsystems) and the images were captured with Leica application suite (LAS) software (Leica Microsystems). […] The quantification analysis was performed using Volocity® software on high-resolution confocal images.

Krit1^ECKO BMEC [2] = experiment: KLF2 and KLF4 mRNA in Krit1^ECKO BMEC (RT-qPCR); format: cell-based, mouse; conditions: in vitro, FIG. 5d
Method: as §1
Primary BMEC, human umbilical vein endothelial cells (HUVEC) and freshly isolated brain microvasculature total RNA were isolated using Trizol reagent, according to the manufacturer's protocol (ThermoFisher). For gene expression analysis, single stranded cDNA was produced from 10 ng of total RNA of BMEC using SuperScript III First-Strand synthesis and random primers according to the manufacture's protocol (ThermoFisher). KAPPA SyberFast qPCR kit (Kapa Biosystems) and thermal cycler (CFX96 Real-Time System, Bio-Rad) were used to determine the relative levels of the genes analyzed (primer sequences not shown) according to the manufacturer's protocol. Actin mRNA levels were used as an internal control and the 2^−ΔΔCT method was used for analysis of the data. […]

Compound | ZO1 junctional staining following Krit1 inactivation (Krit1^ECKO BMEC [1]; 2 μM SU5416, Krit1^ECKO BMEC, FIG. 13c) | ZO-1 at BMEC tight junctions following Krit1 inactivation (Krit1^ECKO BMEC [1]; 5 nM mouse recombinant TSP1, Krit1^ECKO BMEC, FIG. 3a) | rise in KLF2 or KLF4 mRNA following Krit1 inactivation (Krit1^ECKO BMEC [2])
Cc1cc(C)c(/C=C2\C(=O)Nc3ccccc32)[nH]1 [SU5416, reference compound] | continuous ZO1 junctional staining |  | 
TSP1: mouse recombinant full length thrombospondin 1 (R&D systems, 7859-TH), a large (~450 kDa) glycoprotein |  | continuous ZO1 junctional staining; also recorded: prevented the loss of ZO-1 from BMEC tight junctions | Neither TSP1 nor 3TSR prevented
